This is an account of results in ChEMBL document CHEMBL3638921, “Bicyclic aryl and heteroaryl sodium channel inhibitors” (2015).

Molecules are shown by their SMILES. A value given as a limit tells only on which side of the number the result lay.

For assay [1], the target named is T1, Sodium channel protein type 9 subunit alpha (Homo sapiens, UniProt Q15858). The assay is described as follows: In Vitro Assay: 293 Cells stably transfected with either Nav 1.7 or Nav 1.5 were recorded in population patch-clamp mode with the IonWorks Quattro automated electrophysiology system in accordance with the manufacturer's specifications (Molecular Devices, LLC, Sunnyvale, Calif.). Sodium channel currents were measured in response to a train of depolarizations that induced successively greater inactivation.Cells were held at -110 mV for three seconds (Nav 1.7) or half a second (Nav 1.5) from a holding voltage of -15 mV, then put through a series of 26 pulses of 150 msec duration to -20 mV at a frequency of 5 Hz. Cells were then left unclamped for a period of 3 to 8 minutes while a single concentration of test compound was added. Cells were then reclamped and put through the same voltage protocol. Current at the end of the 26th pulse to -20 mV was subtracted from the peak current evoked by the 26th pulse to -20 mV to correct for leak current. In general terms: In patch-clamp work, channel activity is measured electrically.

Assay [2] deals with T1, Sodium channel protein type 9 subunit alpha. The experiment in a line: In Vitro PX Assay: 293 cells stably transfected with human Nav1.7 were recorded in whole cell voltage clamp mode with the PatchXpress automated electrophysiology system (Molecular Devices, LLC, Sunnyvale, Calif.). Compound effects were measured on a partially inactivated state of the sodium channel. Cells were clamped to a holding potential yielding 20 to 50% inactivation. To elicit sodium current, channels were activated by pulsing to −10 mV for 20 msec. This voltage protocol was repeated at a rate of 0.1 Hz throughout the experiment. A single concentration of test compound was applied to cells for a duration of 3 minutes. Peak sodium current was measured at the end of the compound addition period to determine percent inhibition. It is filed as cell-based.

T1 sequence (Q15858 whole entry): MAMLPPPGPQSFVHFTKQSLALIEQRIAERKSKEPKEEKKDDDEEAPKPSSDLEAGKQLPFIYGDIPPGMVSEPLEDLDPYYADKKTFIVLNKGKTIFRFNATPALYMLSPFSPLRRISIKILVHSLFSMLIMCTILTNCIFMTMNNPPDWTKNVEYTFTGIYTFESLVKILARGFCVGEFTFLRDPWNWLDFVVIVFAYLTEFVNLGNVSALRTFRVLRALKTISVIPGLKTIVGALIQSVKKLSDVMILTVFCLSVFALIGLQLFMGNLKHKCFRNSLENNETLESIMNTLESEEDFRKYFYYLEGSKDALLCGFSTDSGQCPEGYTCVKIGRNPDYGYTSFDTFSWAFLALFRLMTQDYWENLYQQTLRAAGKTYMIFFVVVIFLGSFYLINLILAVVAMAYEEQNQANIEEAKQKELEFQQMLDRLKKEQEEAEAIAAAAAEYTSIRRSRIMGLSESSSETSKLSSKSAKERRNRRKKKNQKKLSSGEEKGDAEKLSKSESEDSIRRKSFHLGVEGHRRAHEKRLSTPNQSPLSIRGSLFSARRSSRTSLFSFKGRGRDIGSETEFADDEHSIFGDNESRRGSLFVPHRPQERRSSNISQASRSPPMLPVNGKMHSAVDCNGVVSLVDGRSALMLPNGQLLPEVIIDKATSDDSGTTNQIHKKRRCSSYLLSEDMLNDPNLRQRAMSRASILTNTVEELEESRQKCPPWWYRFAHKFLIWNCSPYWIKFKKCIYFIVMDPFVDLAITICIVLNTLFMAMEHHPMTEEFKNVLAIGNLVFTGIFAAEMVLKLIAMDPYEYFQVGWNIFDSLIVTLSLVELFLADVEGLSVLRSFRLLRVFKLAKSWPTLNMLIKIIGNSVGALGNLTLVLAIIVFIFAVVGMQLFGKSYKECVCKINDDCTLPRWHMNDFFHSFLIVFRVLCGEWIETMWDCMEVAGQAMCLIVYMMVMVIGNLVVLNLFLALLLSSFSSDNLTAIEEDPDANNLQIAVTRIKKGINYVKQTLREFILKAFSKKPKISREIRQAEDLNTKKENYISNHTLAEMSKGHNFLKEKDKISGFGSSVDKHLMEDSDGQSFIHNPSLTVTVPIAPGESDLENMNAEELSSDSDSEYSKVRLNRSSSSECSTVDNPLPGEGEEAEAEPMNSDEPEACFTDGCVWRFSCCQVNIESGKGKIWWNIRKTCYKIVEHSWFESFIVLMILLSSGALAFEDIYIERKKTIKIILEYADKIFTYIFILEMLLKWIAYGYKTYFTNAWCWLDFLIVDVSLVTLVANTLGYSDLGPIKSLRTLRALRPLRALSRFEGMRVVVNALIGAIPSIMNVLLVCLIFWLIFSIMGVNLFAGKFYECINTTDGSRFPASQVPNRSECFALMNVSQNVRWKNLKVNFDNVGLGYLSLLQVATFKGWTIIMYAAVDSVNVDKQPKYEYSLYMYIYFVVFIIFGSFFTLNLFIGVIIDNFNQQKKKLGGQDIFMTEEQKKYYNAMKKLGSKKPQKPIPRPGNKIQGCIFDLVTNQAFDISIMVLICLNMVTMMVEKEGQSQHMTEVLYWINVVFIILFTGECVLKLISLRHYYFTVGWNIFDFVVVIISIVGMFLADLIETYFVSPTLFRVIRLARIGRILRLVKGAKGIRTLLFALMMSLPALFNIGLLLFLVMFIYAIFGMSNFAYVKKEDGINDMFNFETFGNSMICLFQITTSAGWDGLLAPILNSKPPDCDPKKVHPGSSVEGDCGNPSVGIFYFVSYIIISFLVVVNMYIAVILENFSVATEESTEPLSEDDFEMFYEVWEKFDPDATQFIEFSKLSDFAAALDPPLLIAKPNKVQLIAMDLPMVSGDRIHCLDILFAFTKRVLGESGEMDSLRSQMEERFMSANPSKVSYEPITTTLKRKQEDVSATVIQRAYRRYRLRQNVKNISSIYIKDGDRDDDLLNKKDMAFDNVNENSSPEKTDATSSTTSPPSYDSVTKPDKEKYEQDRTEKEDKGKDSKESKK

One may read the IC50 as the concentration that gives 50% inhibition. Low readings indicate higher potency, high ones lower potency. On to `Nc1cc(Cl)ccc1-c1cccc2cc(S(=O)(=O)Nc3ncns3)ccc12`, for which the concentration for half-maximal inhibition (IC50) in assay [1] was 110 nM.

In turn, `Cc1cc(Cl)ccc1-c1cccc2cc(S(=O)(=O)Nc3ncns3)ccc12` returned an IC50 in assay [1] of 190 nM.

In the case of `O=S(=O)(Nc1ncns1)c1ccc2c(-c3ccc(Cl)cc3)cccc2c1`, 190 nM corresponded to half-maximal inhibition in assay [1] (IC50).

As for `O=S(=O)(Nc1ncns1)c1ccc2c(-c3ccc(Cl)cc3F)cccc2c1`, half-maximal inhibition in assay [1] (IC50) required 210 nM.

In assay [1], `O=S(=O)(Nc1ncns1)c1ccc2c(-c3ccc(C(F)(F)F)cc3F)cccc2c1` displayed an IC50 of 210 nM.

Compound `O=S(=O)(Nc1ncns1)c1ccc2c(-c3ccc(C(F)(F)F)cc3)cccc2c1` displayed an IC50 in assay [1] of 430 nM.

Regarding `O=S(=O)(Nc1ncns1)c1ccc2c(-c3ccc(Cl)cc3Cl)nccc2c1`, half-maximal inhibition in assay [1] (IC50) required 70 nM.

As for `O=S(=O)(Nc1ncns1)c1ccc2c(N3CCC3c3ccccc3)cccc2c1` (stereo not given), the IC50 in assay [2] was determined as 10500 nM; in assay [1], 3900 nM.

As to `CN1CCC(c2cc(C(F)(F)F)ccc2-c2cccc3cc(S(=O)(=O)Nc4ncc(F)s4)ccc23)CC1`, the IC50 in assay [2] was 282 nM; in assay [1] it was 150 nM.

With `COc1cc(Cl)ncc1-c1nccc2cc(S(=O)(=O)Nc3ccncn3)ccc12`, the IC50 in assay [2] came to 18300 nM; in assay [1], 460 nM.

As for `O=S(=O)(Nc1ccncn1)c1ccc2c(-c3cc(C(F)(F)F)ccc3F)nccc2c1`, the values for the IC50 in assay [2] and in assay [1] were 10800 nM and 570 nM, respectively.

Take `COc1cc(C)ccc1-c1nccc2cc(S(=O)(=O)Nc3nccs3)ccc12`: in assay [2], the midpoint of inhibition, the IC50, lay at 393 nM.

`O=S(=O)(Nc1nccs1)c1ccc2c(-c3ccc(F)cc3Oc3cccnn3)nccc2c1` displayed an IC50 in assay [2] of 13500 nM.

`O=S(=O)(Nc1nccs1)c1ccc2c(N3CCN(c4ccc(Cl)c(Cl)c4)CC3)nccc2c1` had an IC50 in assay [2] of 10900 nM.

In the case of `COc1cc(C#N)ccc1-c1nncc2cc(S(=O)(=O)Nc3nccs3)ccc12`, the values for the IC50 in assay [2] and in assay [1] were 1230 nM and 260 nM, respectively.

For the compound `Cc1noc(C)c1-c1nccc2cc(S(=O)(=O)Nc3ccncn3)ccc12`, the concentration for half-maximal inhibition (IC50) in assay [1] is more than 10000 nM.

In assay [2], `Cc1cnc(OCCOc2ccccc2)c(-c2nccc3cc(S(=O)(=O)Nc4nccs4)ccc23)c1` returned an IC50 of 5160 nM.

In assay [2], `COc1cc(-c2cccnc2)ccc1-c1nccc2cc(S(=O)(=O)Nc3ccncn3)ccc12` gave an IC50 of 5370 nM.

In assay [2], `O=S(=O)(Nc1nccs1)c1ccc2c(-c3ccc(C(F)(F)F)cc3Cl)ncnc2c1` had an IC50 of 971 nM.

On to `O=S(=O)(Nc1ccncn1)c1ccc2c(-c3ccc(-c4cccc(F)c4)cc3)nccc2c1`, for which, in assay [2], the IC50 came to 4500 nM.
